Reference: US7005430B2, “Fused purine derivatives” (Kyowa Hakko Kogyo Co., Ltd., priority 1999, dated 2006)

Experiments:
dd mice = test: Acute toxicity test (minimum lethal dose); format: in vivo; settings: po, mortality rate after seven days
Procedure: A test compound was orally administered to dd mice [male, body weight: 20±1 g (n=3)]. Mortality rate after seven days was measured to determine minimum lethal dose (MLD).

MIN6 cell = test: Insulin secretion promoting activity for cultured β cells (MIN6); format: cell-based
Procedure: Culture of the MIN6 cells above and insulin secretion test utilizing the MIN6 cells were performed according to the methods described in Diabetologia, vol. 36, pp. 1139–1145, 1993. The effect of a compound on the insulin secretion in the presence of 14.5 mmol/L glucose was determined by measuring insulin amounts in cell culture supernatants collected as follows. MIN6 cells cultured on a 24-well plate were washed twice by using 1 mL of Buffer A (119 mmol/L sodium chloride, 4.74 mmol/L potassium chloride, 2.54 mmol/L calcium chloride, 1.19 mmol/L magnesium sulfate, 1.19 mmol/L potassium dihydrogenphosphate, 10 mmol/L 2-[4-(2-hydroxyethyl)-1-piperazinyl]ethanesulfonic acid, 0.1% bovine serum albumin, pH 7.3) containing 2 mmol/L glucose, and then were incubated in 1 mL of Buffer A containing 2 mmol/L glucose at 37° C. for 45 minutes. After the incubation, the culture supernatant was changed to Buffer A (0.9 mL) containing a test compound at various concentrations and 2 mmol/L glucose, and the cells were further incubated at 37° C. for 15 minutes. The MIN6 cells were stimulated with glucose by the addition of Buffer A (0.1 mL) containing 127 mmol/L glucose to the culture (final glucose concentration: 14.5 mmol/L). After the stimulation, the cells were further incubated at 37° C. for 45 minutes, and then the culture supernatant was collected.
Separately, the effect of a compound on the insulin secretion in the presence of 5 mmol/L glucose was determined by measuring insulin amounts in cell culture supernatants collected as follows. MIN6 cells cultured on a 24-well plate were washed twice by using 1 mL of Buffer A containing 5 mmol/L glucose, and then the culture supernatant was changed to Buffer A (0.9 mL) containing a test compound at various concentrations and 5 mmol/L glucose. Then, the cells were incubated at 37° C. for 45 minutes (final glucose concentration: 5 mmol/L), and the culture supernatant was collected.
After the culture supernatant was diluted with a phosphate buffer containing 1% bovine serum albumin, 0.1% Tween 20, 0.12% disodium ethylenediaminetetraacetate (EDTA) and 0.1% sodium azide, antibody-reactive insulin secreted in the culture supernatant was quantified by enzyme immunoassay or radio immunoassay. The insulin level was indicated as the amount of human insulin (ng/mL). The results are indicated as averages (avg) for 3 to 4 samples with standard erroe values (se).

Wistar male rats = test: Hyperglycemia suppressing action after glucose loading in normal rats; format: in vivo; settings: 14 mg/kg po
Procedure: Wistar male rats (body weight: about 280 g) were used for the experiment after starvation for 24 hours. A test compound was orally administered to the rats 15 minutes before oral administration of glucose (2 g/kg). Blood was collected from a tail vein before the administration of the test compound and 30, 60, 120 and 180 minutes after the glucose loading, and blood glucose level was measured by using a simplified blood sugar level measuring apparatus.

[1] = in the presence of 5 mmol/L of glucose, drug concentration 10 (mmol/L [sic]), None = 51.2
[2] = in the presence of 14.5 mmol/L of glucose, drug concentration 1.0 μmol/L, None = 148.4

Row | SMILES | minimum lethal dose (MLD) (dd mice) | Insulin secretion amount (ng/ml) avg (MIN6 cell; [1]) [ng/mL] | Insulin secretion amount (ng/ml) avg (MIN6 cell; [2]) [ng/mL] | Plasma Glucose Concentration (Wistar male rats; 30 minutes after glucose loading (2 g/kg), Control 169 ± 7.2) [mg/dL] | Plasma Glucose Concentration (Wistar male rats; 60 minutes after glucose loading (2 g/kg), Control 167 ± 8.0) [mg/dL] | Plasma Glucose Concentration (Wistar male rats; 120 minutes after glucose loading (2 g/kg), Control 93 ± 4.5) [mg/dL] | Plasma Glucose Concentration (Wistar male rats; 180 minutes after glucose loading (2 g/kg), Control 83 ± 3.7) [mg/dL] | Plasma Glucose Concentration (Wistar male rats; time 0 (before administration of the test compound), Control 82 ± 3.7) [mg/dL] | melting point [°C]
1 | CCCN1C(=O)N2C[C@@H](Cc3ccncc3)N=C2c2[nH]c(C3CCCC3)nc21 [Compound 2, (R)-2-Cyclopentyl-7,8-dihydro-8-(4-picolyl)-4-(n-propyl)-1H-imidazo[2,1-i]purin-5(4H)-one D-tartrate] | not less than 500 mg/kg | 86.3 | 203.6 | 144 ± 6.6 | 156 ± 5.7 | 90 ± 5.7 | 82 ± 4.2 | 91 ± 2.1 | –
2 | CCOC1=Nc2nc(C(C)(C)C)[nH]c2C2=N[C@H](Cc3ccccc3)CN12 [Compound 70, (R)-8-Benzyl-2-(tert-butyl)-5-ethoxy-7,8-dihydro-1H-imidazo[2,1-i]purine] | – | 57.0 | 174.9 | – | – | – | – | – | 220 to 222
3 | CSC1=Nc2nc(C(C)(C)C)[nH]c2C2=N[C@H](Cc3ccccc3)CN12 [Compound 73, (R)-8-Benzyl-2-(tert-butyl)-7,8-dihydro-5-methylthio-1H-imidazo[2,1-i]purine] | – | 63.3 | 176.6 | – | – | – | – | – | 171 to 174
